Assay results: ChEMBL document CHEMBL1151566, “Cephem sulfones as inactivators of human leukocyte elastase. II. Keto-enol tautomerish in cephem-4-ketones” (Bioorg Med Chem Lett, 1992)

Legend:
[1] = pKa value was determined; assay type: physicochemical
[2] = Chemical half-life was evaluated at 37 degree C expressed as stability towards hydrolysis; assay type: physicochemical
[3] = target: T1, Neutrophil elastase (Homo sapiens) (UniProt P08246); assay: Inhibition of human leukocyte elastase II (HLE-II) as second order rate constant
T1 sequence (whole entry): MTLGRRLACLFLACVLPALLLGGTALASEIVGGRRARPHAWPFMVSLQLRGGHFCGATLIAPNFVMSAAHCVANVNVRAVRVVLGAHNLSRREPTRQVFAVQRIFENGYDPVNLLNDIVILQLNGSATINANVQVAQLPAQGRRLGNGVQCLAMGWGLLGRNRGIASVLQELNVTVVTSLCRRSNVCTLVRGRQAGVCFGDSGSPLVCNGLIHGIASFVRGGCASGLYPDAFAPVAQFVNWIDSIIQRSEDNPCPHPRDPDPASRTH

Row | pKa [1] | half-life [2] [h] | k on [3] [M⁻¹ s⁻¹] | Structure (SMILES)
1 | 5.7 | 86 | 930 | CO[C@H]1C(=O)N2C(C(=O)c3ccccc3)=C(C)C(Sc3nc(=O)c(=O)[nH]n3C)S(=O)(=O)[C@H]12 (some centres not stated)
2 | 4.8 | 120 | 200 | CO[C@H]1C(=O)N2C(C(=O)c3ccccc3)=C(C)C(Sc3nnnn3C)S(=O)(=O)[C@H]12 (some centres not stated)
3 | 3.5 | 850 | – | CO[C@H]1C(=O)N2C(C(=O)c3ccccc3)=C(CSc3nnnn3C)C(Sc3nnnn3C)S(=O)(=O)[C@H]12 (some centres not stated)
4 | 8.9 | 16.3 | 54000 | CO[C@H]1C(=O)N2C(C(=O)C(C)(C)C)=C(C)C(Sc3nc(=O)c(=O)[nH]n3C)S(=O)(=O)[C@H]12 (some centres not stated)
5 | 9.6 | 33 | – | CO[C@H]1C(=O)N2C(C(=O)c3ccccc3)=C(C)CS(=O)(=O)[C@H]12
6 | 7.5 | 26 | 42000 | CO[C@H]1C(=O)N2C(C(=O)C(C)(C)C)=C(C)C(Sc3nnc(C)s3)S(=O)(=O)[C@H]12 (some centres not stated)
7 | 11.9 | 37 | 32000 | CO[C@H]1C(=O)N2C(C(=O)C(C)(C)C)=C(CSc3nnc(C)s3)CS(=O)(=O)[C@H]12
8 | – | 130 | – | CO[C@H]1C(=O)N2C(C(=O)C(C)(C)C)=C(C)CS(=O)(=O)[C@H]12
9 | 8.4 | 8.6 | – | CO[C@H]1C(=O)N2C(C(=O)c3ccccc3)=C(CSc3nnnn3C)CS(=O)(=O)[C@H]12
10 | 6 | 24 | – | CO[C@H]1C(=O)N2C(C(=O)C(C)(C)C)=C(CSc3nnnn3C)C(Sc3nnnn3C)S(=O)(=O)[C@H]12 (some centres not stated)
11 | 5.8 | 46 | 21000 | CO[C@H]1C(=O)N2C(C(=O)C(C)(C)C)=C(CSc3nnc(C)s3)C(Sc3nnc(C)s3)S(=O)(=O)[C@H]12 (some centres not stated)
12 | 7.9 | 14.8 | 100000 | CO[C@H]1C(=O)N2C(C(=O)C(C)(C)C)=C(C)C(Sc3nnnn3C)S(=O)(=O)[C@H]12 (some centres not stated)
13 | 11.6 | 24 | – | CO[C@H]1C(=O)N2C(C(=O)C(C)(C)C)=C(CSc3nnnn3C)CS(=O)(=O)[C@H]12
